In US9353082B2, “Pharmaceutical compounds” (BIAL—PORTELA & CA, S.A., priority 2008, dated 2016):

Tests used:
FAAH [1] = target: T1, FAAH (Rattus norvegicus, UniProt P97612); assay: In vitro FAAH activity in rat brain membranes, 3H-AEA substrate, % of control; type: biochemical, Wistar rats; settings: 100 nM test compound, low value = strong inhibitor
T1 construct: Frozen brains (without cerebellum) from Wistar rats were used; from tissue; host or cells: Wistar rat brain (without cerebellum), washed membrane pellets
T1 sequence (P97612 1-579): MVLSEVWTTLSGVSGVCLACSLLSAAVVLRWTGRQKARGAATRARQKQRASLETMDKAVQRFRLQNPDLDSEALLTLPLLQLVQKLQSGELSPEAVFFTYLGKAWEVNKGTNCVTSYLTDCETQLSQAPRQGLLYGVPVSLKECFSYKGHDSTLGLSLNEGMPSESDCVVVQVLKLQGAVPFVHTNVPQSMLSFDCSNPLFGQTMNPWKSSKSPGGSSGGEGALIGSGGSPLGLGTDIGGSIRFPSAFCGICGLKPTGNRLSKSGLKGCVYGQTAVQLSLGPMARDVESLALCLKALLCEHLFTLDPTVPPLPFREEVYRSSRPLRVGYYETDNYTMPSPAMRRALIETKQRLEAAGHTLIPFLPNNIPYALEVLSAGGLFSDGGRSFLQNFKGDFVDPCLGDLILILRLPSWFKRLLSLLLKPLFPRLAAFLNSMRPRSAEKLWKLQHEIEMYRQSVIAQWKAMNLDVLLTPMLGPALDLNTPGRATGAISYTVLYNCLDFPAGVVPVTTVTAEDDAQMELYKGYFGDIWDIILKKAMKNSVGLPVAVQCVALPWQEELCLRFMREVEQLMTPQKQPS
Summary of the method: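 FAAH activity measured as 3H-ethanolamine released from 2 μM [3H]AEA over 10 min by rat brain membrane preparation, after 15 min 37 °C preincubation with test compound at 10 or 0.1 μM. Charcoal-separated supernatant scintillation-counted; values expressed as % of control minus no-protein blank.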

FAAH [2] = target: T2, FAAH (Mus musculus, UniProt O08914); assay: In vivo FAAH inhibition after oral dosing, remaining activity in brain homogenate (BRh, central nervous tissue); parameters: species or system NMRI mice; settings: brain homogenate, 3 mg/kg, 8 h
T2 construct: A fragment of liver, left lung lobe and brain without cerebellum were removed; from tissue; host or cells: male NMRI mice; brain (without cerebellum) and liver homogenates
T2 sequence (O08914 1-579): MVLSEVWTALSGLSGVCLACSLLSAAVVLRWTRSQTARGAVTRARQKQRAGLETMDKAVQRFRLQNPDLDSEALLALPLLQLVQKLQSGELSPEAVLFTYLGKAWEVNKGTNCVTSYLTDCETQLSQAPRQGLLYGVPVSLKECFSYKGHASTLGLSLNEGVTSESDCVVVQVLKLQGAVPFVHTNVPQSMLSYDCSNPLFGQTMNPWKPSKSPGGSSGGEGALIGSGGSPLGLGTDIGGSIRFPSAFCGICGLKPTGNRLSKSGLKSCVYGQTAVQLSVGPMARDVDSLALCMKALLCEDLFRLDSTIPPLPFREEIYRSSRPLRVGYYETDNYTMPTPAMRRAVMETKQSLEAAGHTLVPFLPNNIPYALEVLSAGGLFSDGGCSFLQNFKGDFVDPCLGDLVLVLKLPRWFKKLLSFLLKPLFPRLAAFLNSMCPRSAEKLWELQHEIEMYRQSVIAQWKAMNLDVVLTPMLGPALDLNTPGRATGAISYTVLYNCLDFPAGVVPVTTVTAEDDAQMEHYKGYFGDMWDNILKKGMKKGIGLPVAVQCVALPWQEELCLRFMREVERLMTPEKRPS
Summary of the method: (§1)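 Remaining FAAH activity is given as % of vehicle-treated controls after blank subtraction, measured by radiolabelled AEA hydrolysis (2 μM AEA, 5 nM 3H-AEA, 37 °C) in brain (10 min) or liver (7 min) homogenates. These came from fasted male NMRI mice dosed orally at 30 or 3 mg/kg.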

FAAH [3] = target: T2, FAAH; assay: In vivo FAAH inhibition after oral dosing, remaining activity in liver homogenate (LVh, peripheral tissue); parameters: species or system NMRI mice; settings: liver homogenate, 3 mg/kg, 8 h
Summary of the method: as §1

Row | Structure (SMILES) | In Vitro FAAH activity, 100 nM (FAAH [1]) | In Vivo BRh 3 mg/kg 8 h, remaining FAAH activity (FAAH [2]) | In Vivo LVh 3 mg/kg 8 h, remaining FAAH activity (FAAH [3])
1 | CN(Cc1ccccc1)C(=O)n1cnc(-c2ccc(F)cc2)c1 [Compound 150, N-benzyl-4-(4-fluorophenyl)-N-methyl-1H-imidazole-1-carboxamide] | 1.2 % of control | 5.6 % of control | 3.8 % of control
2 | CN(Cc1ccccc1)C(=O)n1cnc(-c2ccc(Oc3ccc(C(N)=O)cc3)cc2)n1 [Compound 151, N-benzyl-3-(4-(4-carbamoylphenoxy)phenyl)-N-methyl-1H-1,2,4-triazole-1-carboxamide] | 0.4 % of control | 116.7 % of control | 65.8 % of control
3 | O=C(N1CCN(c2ccccc2)CC1)n1cnc(-c2cccs2)n1 [Compound 155, (4-phenylpiperazin-1-yl)(3-(thiophen-2-yl)-1H-1,2,4-triazol-1-yl)methanone] | 0.4 % of control | 144.1 % of control | 108.2 % of control
4 | CN(CCOCc1ccccc1)C(=O)n1nnc2ccccc21 [Compound 156, N-(2-(benzyloxy)ethyl)-N-methyl-1H-benzo[d][1,2,3]triazole-1-carboxamide] | 0.1 % of control | 67.2 % of control | 24.4 % of control
5 | COc1ccc(OCCN(C)C(=O)n2nnc3ccccc32)cc1 [Compound 157, N-(2-(4-methoxyphenoxy)ethyl)-N-methyl-1H-benzo[d][1,2,3]triazole-1-carboxamide] | 0 % of control | 5.2 % of control | 3.5 % of control
6 | Cl.O=C(N1CCN(Cc2ccccc2)CC1)n1cnc(-c2cccs2)n1 [Compound 158, (4-benzylpiperazin-1-yl)(3-(thiophen-2-yl)-1H-1,2,4-triazol-1-yl)methanone hydrochloride] | 0.3 % of control | 92 % of control | 85.6 % of control
7 | CC1(C)COCN1C(=O)n1nnc2ccc(Br)cc21 [Compound 162, (6-bromo-1H-benzo[d][1,2,3]triazol-1-yl)(4,4-dimethyloxazolidin-3-yl)methanone] | 0 % of control | 0.9 % of control | 3.1 % of control
8 | CC1(C)COCN1C(=O)n1nnc2ccc(-c3cccc(C(N)=O)c3)cc21 [Compound 163, 3-(3-(4,4-dimethyloxazolidine-3-carbonyl)-3H-benzo[d][1,2,3]triazol-5-yl)benzamide] | 0.6 % of control | 6.3 % of control | 2.4 % of control
9 | O=C(N1CCS(=O)(=O)C1)n1nnc2ccccc21 [Compound 167, 1-[(1,1-dioxido-1,3-thiazolidin-3-yl)carbonyl]-1H-benzotriazole] | 96.2 % of control | 99.9 % of control | 104 % of control
10 | O=C(N1CCN(c2ccccc2)CC1)n1cnc(Cc2ccccc2)n1 [Compound 182, (3-benzyl-1H-1,2,4-triazol-1-yl)(4-phenylpiperazin-1-yl)methanone] | 0.6 % of control | 90.6 % of control | 111 % of control

Now from value to compound:

Row | In Vitro FAAH activity, 100 nM (FAAH [1]) | In Vivo BRh 3 mg/kg 8 h, remaining FAAH activity (FAAH [2]) | In Vivo LVh 3 mg/kg 8 h, remaining FAAH activity (FAAH [3]) | Structure (SMILES)
11 | 102 % of control | 92.4 % of control | 78.1 % of control | CC1(C)COCN1C(=O)n1cnc(-c2ccc(F)cc2F)n1 [Compound 183, (3-(2,4-difluorophenyl)-1H-1,2,4-triazol-1-yl)(4,4-dimethyloxazolidin-3-yl)methanone]
12 | 96.5 % of control | 78.7 % of control | 37.7 % of control | CC1(C)COCN1C(=O)n1cnc(-c2ccc(Cl)cc2)c1 [Compound 186, (4-(4-chlorophenyl)-1H-imidazol-1-yl)(4,4-dimethyloxazolidin-3-yl)methanone]
13 | 92.8 % of control | 85.6 % of control | 108.6 % of control | CC1(C)COCN1C(=O)n1cnc(-c2ccc(Oc3ccc(C(N)=O)cc3)cc2)n1 [Compound 187, 4-(4-(1-(4,4-dimethyloxazolidine-3-carbonyl)-1H-1,2,4-triazol-3-yl)phenoxy)benzamide]
14 | 103.3 % of control | 78.7 % of control | 89 % of control | COc1ccc(-c2ncn(C(=O)N3COCC3(C)C)n2)cc1 [Compound 188, (4,4-dimethyloxazolidin-3-yl)(3-(4-methoxyphenyl)-1H-1,2,4-triazol-1-yl)methanone]
15 | 98.5 % of control | 105.9 % of control | 87.6 % of control | CC1(C)COCN1C(=O)n1cnc(-c2ccc(Cl)cc2)n1 [Compound 189, (3-(4-chlorophenyl)-1H-1,2,4-triazol-1-yl)(4,4-dimethyloxazolidin-3-yl)methanone]
16 | 21 % of control | 60 % of control | 20.8 % of control | CN(Cc1ccccc1)C(=O)n1cnc(-c2cccc3ccccc23)n1 [Compound 191, N-benzyl-N-methyl-3-(naphthalen-1-yl)-1H-1,2,4-triazole-1-carboxamide]
17 | 15.7 % of control | 9.1 % of control | 5.7 % of control | C[C@@H](c1ccccc1)N(C)C(=O)n1nnc2ccccc21 [Compound 195, (S)—N-methyl-N-(1-phenylethyl)-1H-benzo[d][1,2,3]triazole-1-carboxamide]
18 | 2.5 % of control | 88.1 % of control | 78.3 % of control | O=C(N1CCN(c2ccccc2)CC1)n1cnc(-c2cccc(-c3ccccc3)c2)c1 [Compound 196, (4-(biphenyl-3-yl)-1H-imidazol-1-yl)(4-phenylpiperazin-1-yl)methanone]
19 | 89 % of control | 45.9 % of control | 19.7 % of control | CN(C(=O)n1cnc(-c2ccc(N)cc2)c1)c1ccccc1 [Compound 199, 4-(4-aminophenyl)-N-methyl-N-phenyl-1H-imidazole-1-carboxamide]
20 | 93.5 % of control | 101.8 % of control | 64.3 % of control | CN(C(=O)n1cnc(-c2ccc(OCCN3CCNCC3)cc2)c1)c1ccccc1.Cl.Cl [Compound 203, N-methyl-N-phenyl-4-(4-(2-(piperazin-1-yl)ethoxy)phenyl)-1H-imidazole-1-carboxamide dihydrochloride]
